Consider 4 compounds from US9512167B2, “Optimized synthesis of pure, non-polymorphic, crystalline bile acids with defined particle size” (Dr. Falk Pharma GmbH, priority 2010, dated 2016).

One may read the solubility as the dissolved amount per volume that the medium holds.

Values after ≈ are worked out from the molar mass of the structure shown. Bounds are passed on as bounds.

Common to all, as to format: physicochemical
The nature of data set [1]: Particle size analysis of crystals by microscopy (Reference Example). How it is done:
Various properties of Nor-UDCA synthesized according to Schteingart and Hofmann (1988) Journal of Lipid Research Vol. 29(10), […] were investigated.
The particle size of the crystals obtained was analyzed by microscopy. […] This particle size distribution is not suitable for the intended pharmaceutical preparation. Milling/micronization is not desired as this would result in a reduction of the polymorphic purity and/or of the thermodynamic stability of the Nor-UDCA.

Data set [2] can be described thus: Polymorph screen: relative stability of forms by XRPD re-analysis after storage. To be noted: for Stability by XRPD (form found on XRPD re-analysis after storage): storage at ambient conditions. How it is done: (§1) The polymorph screening study was carried out in two phases. In Phase 1, the synthesized Nor-UDCA, designated Form A, was characterised by XRPD, digital imaging, thermal analysis (DSC and TGMS). The purity of the material was checked by HPLC/RI. A qualitative solubility determination with 20 solvents was carried out in order to fit the data for the selection of the crystallization solvents to be employed in the polymorph screen. Additionally, the solids recovered by evaporation of solutions used in the solubility experiments were analyzed by XRPD and digital imaging to obtain information on the potential form formation of new forms of Nor-UDCA (see Table 2). Grinding tests were conducted in order to support the definition of the experimental space for this crystallization mode. Amorphous material to be used as starting material was intentionally produced by freeze-drying from 1,4-dioxane/water (95/5%) solution and by grinding (ball-milling) for “cooling/evaporation and vapour diffusion into solids experiments”. In Phase 2, 217 experiments divided across different crystallization modes were performed. The applied crystallization modes were: • Combined cooling/evaporative crystallization experiments starting with amorphous material • Crystallization with forward anti-solvent addition • Slurry experiments at two temperatures • Vapour diffusion into solutions • Vapour diffusion onto amorphous solids • Crystallization by grinding with 24 solvents and one dry.
Upon completion of the experiments, XRPD and digital images analyses were performed on all crystallized solids.

Data set [3] can be described thus: Qualitative solubility determination of Nor-UDCA with 20 solvents. To be noted: thermodynamic from solid. How it is done: as §1
The nature of data set [4]: Particle size determination by laser diffraction. To be noted: dry method, Malvern. From the text:
The particle size distribution can be determined as described herein in Example 3 and/or according the European Pharmacopeia (Ph. Eur.), edition 6.8. section 2.9.31, preferably with a Mastersizer 2000 by Malvern instruments. The evaluation is typically carried out by the Fraunhofer model.
The precipitation of the free acid leads to Nor-UDCA particles of a consistent and defined size distribution. Micronization by milling in order to control the crystal size of Nor-UDCA can be avoided.

Turning to `C[C@H](CC(=O)O)[C@H]1CC[C@H]2[C@@H]3[C@@H](O)C[C@@H]4C[C@H](O)CC[C@]4(C)[C@H]3CC[C@]12C`, in data set [1], the “Median particle size (50% of the crystals this size or less)” value was determined as 13.37 μm, the “Particle size that 60% of the crystals have or less” value amounted to 15.64 μm, the “Particle size that 95% of the particles have or less” value was 46.64 μm and the “Share of particles with a particle size of 10 μm or less” value was “Less than 30%”.
For `C[C@H](CC(=O)O)[C@H]1CC[C@H]2[C@@H]3[C@@H](O)C[C@@H]4C[C@H](O)CC[C@]4(C)[C@H]3CC[C@]12C` [Form B], in data set [2] (stored at ambient conditions in well and experimental vial), the “Time to conversion to Form A (XRPD re-analysis)” value is recorded as ≤ 10 days.
As to `C[C@H](CC(=O)O)[C@H]1CC[C@H]2[C@@H]3[C@@H](O)C[C@@H]4C[C@H](O)CC[C@]4(C)[C@H]3CC[C@]12C` [Form C2], the “Stability by XRPD (form found on XRPD re-analysis after storage)” value in data set [2] is on record as “Form A”.
For `CC(CC(=O)O)[C@H]1CCC2[C@H]3C(CC[C@@]21C)[C@@]1(C)CCC(O)C[C@H]1C[C@@H]3O` (stereo partly drawn) [Nor-UDCA, 3α,7β-dihydroxy-24-nor-5β-cholan-23oic acid], the solubility is < 13 mg/mL in data set [3] (dichloromethane, organic solvent or mixture, solvent Dichlormethane); < 14 mg/mL in data set [3] (organic solvent or mixture, solvent 1,2-Dimethoxyethane); < 14 mg/mL in data set [3] (organic solvent or mixture, solvent 1,2-Ethanediol); 21 mg/mL (≈ 55.5 mM) in data set [3] (organic solvent or mixture, solvent 1,4-Dioxane); 21 mg/mL (≈ 55.5 mM) in data set [3] (organic solvent or mixture, solvent 2,2,2-Trifluoroethanol); < 14 mg/mL in data set [3] (organic solvent or mixture, solvent 2-Butanone). Besides, the solubility in data set [3] (organic solvent or mixture, solvent Acetone) was < 14 mg/mL; in data set [3] (organic solvent or mixture, solvent Acetonitrile), < 13 mg/mL; in data set [3] (organic solvent or mixture, solvent Chloroform), < 14 mg/mL; in data set [3] (organic solvent or mixture, solvent Cyclohexane) it was < 14 mg/mL; in data set [3] (organic solvent or mixture, solvent Dimethylsulfoxide), 207 mg/mL (≈ 547 mM); in data set [3] (organic solvent or mixture, solvent Methanol) it was 70 mg/mL (≈ 185 mM). Moreover, the solubility is 404 mg/mL (≈ 1070 mM) in data set [3] (organic solvent or mixture, solvent N-Methyl-2-pyrrolidone); < 13 mg/mL in data set [3] (organic solvent or mixture, solvent Nitrobenzene); < 13 mg/mL in data set [3] (organic solvent or mixture, solvent Nitromethane); < 13 mg/mL in data set [3] (organic solvent or mixture, solvent Pentane); < 12 mg/mL in data set [3] (organic solvent or mixture, solvent Toluene); < 13 mg/mL in data set [3] (tert-butyl methyl ether, organic solvent or mixture, solvent Tert-butylmethylether). The solubility in data set [3] (tetrahydrofuran, organic solvent or mixture, solvent Tetrhydrofurane) was 41 mg/mL (≈ 108 mM); in data set [3] (solvent Water), < 12 mg/mL. The “Particle size D(v, 0.5)” value in data set [4] (listed as Batch 40019721) turned out to be 6.4 μm; in data set [4] (listed as Batch 40019898), 5.4 μm; in data set [4] (listed as Batch 40019902) it was 6.7 μm. Further, the “Thermodynamic stability of the crystalline form” value in data set [2] (polymorph screening study) is “thermodynamically stable”. The “Stability by XRPD (form found on XRPD re-analysis after storage)” value in data set [2] is given as “Form A”.
